Laboratory results taken from patent EP1891948A1, “Treatment of neurological and neuropsychological disorders” (Probiodrug AG, priority 2000, dated 2002).

Experiments:
[1] = tested on: WistarF/Han (WF) rats; assay: 1h food intake with Y1R antagonist pre-treatment (Example 4); format: in vivo; settings: i.c.v., isoleucyl thiazolidine 50nmol, Fig. 11
Protocol: (§1) Animals. Male WistarF/Han (WF) rats (Central Animal Laboratory, Hannover Medical School, Hannover, Germany, see http://www.mh-hannover.de/institut/tierlabor/wf.htm for details), weighing 330±31 g±SD, were housed in a sound-proof, temperature controlled (24.0±0.5°C) room under specific pathogen free conditions with a 12/12h dark/light cycle (lights on at 07.00 with illumination level of 80 Lux). Food (Altromin lab chow pellets) and tap water were available ad libitum. Under ketamine/xylasine (100/5 mg/kg, i.p.) anesthesia, the rats were fixed in a Kopf stereotaxic frame and implanted with cannulae (Plastic One, Inc., Roanoke, VA, USA) above the lateral ventricle. All research and animal care procedures were approved by the Lower Saxony district government (Hannover, Germany) and followed principles described in the European Community's Council Directive of 24 November 1986 (86/609/EEC).
(§2) Surgery and i.c.v. application. For surgery, rats were anesthetized and prepared with i.c.v. cannulae (coordinates: A:-0.7mm caudal, L:1.4mm lateral to bregma; and V3.2mm ventral to the skull surface; tooth bar +3.0 above ear bars) using standard stereotaxic procedures as described in detail elsewhere (von Hörsten et al., 1998a,b,c). After a 7-day recovery period, successful ventricle cannulation was confirmed by an angiotensin drinking response (von Hörsten et al., 1998a). Rats showing a positive drinking response (n=56) were then habituated to experimental handling by daily sham injections for seven days.
Animals were randomly divided into eight experimental groups (n=6-8/group), which completed one SI test of anxiety: (1) aCSF+aCSF+aCSF; (2) BIBP+aCSF+aCSF; (3) aCSF+isoleucyl thiazolidine+aCSF; (4) BIBP+isoleucyl thiazolidine+aCSF; (5) aCSF+aCSF+NPY; (6) BIBP+aCSF+NPY; (7) aCSF+P32/89+NPY; (8) BIBP+isoleucyl thiazolidine+NPY. Animals in each group were treated in an identical way in each phase, receiving i.c.v. injections -60mins and -55min before behavioral testing. Experiments spanned two nights with groups counterbalances on both dark cycles. The injection cannula was attached to a Hamilton microsyringe with approximately 30cm of polyethylene tubing and all compounds were infused in a total volume of 5.0µl at a rate of 5.0 µl/min using a TSE multichannel infusion pump (Bad Homburg, Germany). The time spent in active social interaction (SI-time), 1h, and 12h food-intake were measured.
Peptides and Antagonist. Rat neuropeptide Y1-36 was obtained from Polypeptide Laboratories (Wolfenbüttel, Germany). The NPY Y1 receptor antagonist BIBP3226 was purchased from American Peptide Company, Sunnyvale, CA, USA (Cat#:60-1-22B). […]
Statistical analysis. Data obtained from the measures SI time and 1h food intake were analyzed by one-way (factor: "treatment") ANOVA. […]

[2] = tested on: WistarF/Han (WF) rats; assay: 1h and 12h food intake after combined i.c.v. treatment (Example 3); format: in vivo; settings: Fig. 8
Protocol: as §1, with “330-370g,” for “330±31 g±SD,”
as §2, with “(n=59)” for “(n=56)”
Animals were randomly divided into two sets of four experimental groups (n=5-6/group), which completed different consecutive SI test of anxiety. […] The time spent in active social interaction (SI-time), 1h and 12h food-intake were measured. […]
Statistical analysis. Data from repeated observations (food intake) were analyzed by two-way analyses of variance for repeated measures (ANOVA) (factors: "substrain" and "food intake" as repeated measure). Data obtained from simple measures such as DP IV activity or SI time were analyzed by one-way (factor: "substrain") ANOVA. […]

## CCC(C)C(N)C(=O)N1CCSC1 (stereo not shown) [isoleucyl thiazolidine]
[1]; BIBP3226 100nmol pre-treatment, NPY 0.8nmol
  1h feeding under Y1R blockade: blocked
[1]; without antagonist
  1h food-intake: non-significant slight increase
[2]
  dose at which the 1h feeding effect reaches significance: 0.05 nmol
[2]; single agents or combination, isoleucyl thiazolidine 5pmol-500nmol, NPY 50pmol-1.6nmol
  amount of food eaten within 1h: mild feeding effect
